Literature values in US20080227642A1, “Salts, aqueous liquid compositions containing salts of abscisic acid analogs and methods of their preparation” (priority 2007, published 2008).

Settings: room temperature

In the case of `CC1=CC(=O)CC(C)(C)[C@@]1(O)/C=C/C(C)=C\C(=O)O` [(S)-(+)-abscisic acid, 2-cis-,4-trans-(S)-(+)-abscisic acid], the “highest concentration that can be achieved in pure water” value is listed as “about 3000 ppm”.
